Converted amounts (≈) assume the structure as drawn. The source made the active and inactive calls. The rule behind the calls is not given here.
Test system: P388
Assay: Cytotoxicity against mouse P388 cells
Assay type: functional, cell-based

Structure (SMILES)	IC50 [µg/mL]	Activity
CC[C@@]1(C)CCC[C@]2(C)[C@H]3C[C@H](O)[C@]4(C)[C@H]5C=CC(=O)C5=CC[C@H]4[C@]3(C)CC[C@@H]12 [PHYLLOFENONE B]	5 (≈ 12.6 µM)	–
CC[C@@]1(C)CCC[C@]2(C)[C@H]3CC(=O)[C@]4(C)[C@H]5C(=O)O[C@@H](C)[C@@H]5[C@@H](O)C[C@H]4[C@]3(C)CC[C@@H]12	–	inactive
CC[C@@]1(C)CCC[C@]2(C)[C@H]3C[C@H](O)[C@]4(C)C5=C(CC[C@H]4[C@]3(C)CC[C@@H]12)[C@H](C)OC5=O	–	inactive

Reference: ChEMBL document CHEMBL1158947, “Novel Bishomoscalarane Sesterterpenes from the Sponge Phyllospongia foliascens” (J Nat Prod, 1991)
